The values that follow come from ChEMBL document CHEMBL3217752, “Small molecules targeting phosphoinositide 3-kinases” (Medchemcomm, 2012).

The target of series [1] is T1, Phosphatidylinositol 4,5-bisphosphate 3-kinase catalytic subunit beta isoform (Homo sapiens, UniProt P42338).
Series [2] concerns the target T2, Phosphatidylinositol 4,5-bisphosphate 3-kinase catalytic subunit gamma isoform (Homo sapiens, UniProt P48736).
The target in series [3] is T3, Phosphatidylinositol 4,5-bisphosphate 3-kinase catalytic subunit alpha isoform (Homo sapiens, UniProt P42336).
T3 sequence (P42336 whole entry, canonical isoform): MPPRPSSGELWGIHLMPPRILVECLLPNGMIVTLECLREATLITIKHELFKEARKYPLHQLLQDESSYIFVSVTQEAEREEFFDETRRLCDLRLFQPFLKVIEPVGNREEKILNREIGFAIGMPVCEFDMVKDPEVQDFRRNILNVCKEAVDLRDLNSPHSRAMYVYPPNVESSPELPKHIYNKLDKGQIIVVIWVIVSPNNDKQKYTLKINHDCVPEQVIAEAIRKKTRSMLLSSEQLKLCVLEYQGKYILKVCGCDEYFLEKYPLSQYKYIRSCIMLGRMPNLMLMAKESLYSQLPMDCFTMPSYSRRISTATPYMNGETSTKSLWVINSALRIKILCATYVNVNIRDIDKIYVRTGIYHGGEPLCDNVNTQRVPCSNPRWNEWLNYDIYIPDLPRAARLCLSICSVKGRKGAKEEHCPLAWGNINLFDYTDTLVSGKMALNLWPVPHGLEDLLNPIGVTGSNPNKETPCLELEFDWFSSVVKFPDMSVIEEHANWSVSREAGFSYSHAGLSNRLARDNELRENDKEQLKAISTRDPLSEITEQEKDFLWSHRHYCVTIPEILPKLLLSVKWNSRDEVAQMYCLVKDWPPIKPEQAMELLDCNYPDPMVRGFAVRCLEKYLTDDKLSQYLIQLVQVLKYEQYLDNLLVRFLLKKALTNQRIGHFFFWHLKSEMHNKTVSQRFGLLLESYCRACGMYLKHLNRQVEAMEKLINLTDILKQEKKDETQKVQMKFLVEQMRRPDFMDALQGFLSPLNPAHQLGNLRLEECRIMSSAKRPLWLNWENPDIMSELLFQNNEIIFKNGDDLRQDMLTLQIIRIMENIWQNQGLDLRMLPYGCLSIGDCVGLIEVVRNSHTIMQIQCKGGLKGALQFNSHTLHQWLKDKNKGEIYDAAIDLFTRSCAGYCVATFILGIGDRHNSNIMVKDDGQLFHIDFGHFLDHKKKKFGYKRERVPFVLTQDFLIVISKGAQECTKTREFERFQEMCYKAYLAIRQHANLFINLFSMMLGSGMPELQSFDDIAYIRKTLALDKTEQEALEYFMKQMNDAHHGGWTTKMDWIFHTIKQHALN
Series [4] concerns the target T2, Phosphatidylinositol 4,5-bisphosphate 3-kinase catalytic subunit gamma isoform. This is another data set of the same source.
The target in series [5] is T4, Phosphatidylinositol 4,5-bisphosphate 3-kinase catalytic subunit delta isoform (Homo sapiens, UniProt O00329).
T4 sequence (O00329 whole entry): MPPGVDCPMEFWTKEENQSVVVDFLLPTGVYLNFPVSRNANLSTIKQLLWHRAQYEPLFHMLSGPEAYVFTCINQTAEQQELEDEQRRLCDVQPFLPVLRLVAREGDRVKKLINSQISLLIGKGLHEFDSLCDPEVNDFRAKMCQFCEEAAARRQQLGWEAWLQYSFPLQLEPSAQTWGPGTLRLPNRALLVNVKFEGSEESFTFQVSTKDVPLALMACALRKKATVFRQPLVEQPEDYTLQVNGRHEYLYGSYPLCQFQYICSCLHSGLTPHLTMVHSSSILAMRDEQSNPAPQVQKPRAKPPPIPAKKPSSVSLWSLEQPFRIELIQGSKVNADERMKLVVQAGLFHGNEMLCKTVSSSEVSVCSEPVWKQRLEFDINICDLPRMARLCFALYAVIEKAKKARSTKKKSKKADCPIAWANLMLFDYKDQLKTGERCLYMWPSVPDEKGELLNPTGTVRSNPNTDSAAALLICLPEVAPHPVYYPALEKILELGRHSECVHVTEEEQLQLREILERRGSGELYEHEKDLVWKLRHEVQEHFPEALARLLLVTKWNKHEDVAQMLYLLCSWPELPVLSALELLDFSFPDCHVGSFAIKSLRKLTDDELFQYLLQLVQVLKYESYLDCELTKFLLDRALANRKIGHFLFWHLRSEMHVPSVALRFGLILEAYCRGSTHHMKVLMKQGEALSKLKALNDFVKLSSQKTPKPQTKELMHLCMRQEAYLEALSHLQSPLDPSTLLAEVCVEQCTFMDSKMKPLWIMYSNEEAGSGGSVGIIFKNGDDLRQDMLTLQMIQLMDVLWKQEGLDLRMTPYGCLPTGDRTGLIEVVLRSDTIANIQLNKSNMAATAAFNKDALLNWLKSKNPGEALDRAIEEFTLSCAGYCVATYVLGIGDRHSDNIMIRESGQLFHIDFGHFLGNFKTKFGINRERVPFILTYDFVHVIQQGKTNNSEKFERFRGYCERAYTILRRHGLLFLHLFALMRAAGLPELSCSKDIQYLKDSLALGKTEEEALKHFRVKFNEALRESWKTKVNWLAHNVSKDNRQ

Series [6] addresses Serine/threonine-protein kinase mTOR (Homo sapiens, UniProt P42345).
In series [7] the target is DNA-dependent protein kinase catalytic subunit (Homo sapiens, UniProt P78527).
Series [8] deals with mTORC1 (Homo sapiens, UniProt P42345). Type of series: protein-complex assay.
A short description of series [9]: clinical. The settings on record: human, in vivo.
The nature of series [10]: cells. Type of series: cell-based. As to conditions: Homo sapiens.
Series [11] deals with T3, Phosphatidylinositol 4,5-bisphosphate 3-kinase catalytic subunit alpha isoform. Type of series: cell-based.
Series [12] addresses T1, Phosphatidylinositol 4,5-bisphosphate 3-kinase catalytic subunit beta isoform. Type of series: cell-based.

T1 sequence (P42338 whole entry, canonical isoform): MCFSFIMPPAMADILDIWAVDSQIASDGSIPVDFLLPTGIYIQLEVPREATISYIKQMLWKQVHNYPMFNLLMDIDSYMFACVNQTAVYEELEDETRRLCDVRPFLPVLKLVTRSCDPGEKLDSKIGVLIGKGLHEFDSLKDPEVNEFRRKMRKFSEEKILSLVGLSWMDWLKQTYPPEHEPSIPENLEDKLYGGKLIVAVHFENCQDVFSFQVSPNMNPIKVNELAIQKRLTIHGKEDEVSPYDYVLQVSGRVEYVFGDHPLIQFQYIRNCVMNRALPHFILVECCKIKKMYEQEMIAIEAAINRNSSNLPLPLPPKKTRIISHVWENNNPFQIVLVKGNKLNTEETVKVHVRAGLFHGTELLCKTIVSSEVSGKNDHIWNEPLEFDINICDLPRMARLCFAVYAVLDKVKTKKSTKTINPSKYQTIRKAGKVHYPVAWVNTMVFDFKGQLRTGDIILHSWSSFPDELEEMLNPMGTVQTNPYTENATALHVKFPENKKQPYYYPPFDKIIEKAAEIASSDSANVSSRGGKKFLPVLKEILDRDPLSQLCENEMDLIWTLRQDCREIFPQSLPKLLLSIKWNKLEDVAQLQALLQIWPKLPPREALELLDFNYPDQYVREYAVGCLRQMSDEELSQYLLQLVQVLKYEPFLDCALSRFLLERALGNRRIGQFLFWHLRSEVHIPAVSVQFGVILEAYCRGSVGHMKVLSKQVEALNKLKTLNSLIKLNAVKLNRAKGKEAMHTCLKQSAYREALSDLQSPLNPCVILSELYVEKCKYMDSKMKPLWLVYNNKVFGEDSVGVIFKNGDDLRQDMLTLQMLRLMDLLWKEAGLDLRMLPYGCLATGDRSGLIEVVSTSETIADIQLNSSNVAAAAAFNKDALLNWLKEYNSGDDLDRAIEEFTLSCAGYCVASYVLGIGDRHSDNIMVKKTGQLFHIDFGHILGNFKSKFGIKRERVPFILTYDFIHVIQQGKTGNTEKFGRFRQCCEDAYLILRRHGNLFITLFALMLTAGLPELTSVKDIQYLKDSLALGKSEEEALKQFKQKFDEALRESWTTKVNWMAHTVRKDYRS
T2 sequence (P48736 whole entry, canonical isoform): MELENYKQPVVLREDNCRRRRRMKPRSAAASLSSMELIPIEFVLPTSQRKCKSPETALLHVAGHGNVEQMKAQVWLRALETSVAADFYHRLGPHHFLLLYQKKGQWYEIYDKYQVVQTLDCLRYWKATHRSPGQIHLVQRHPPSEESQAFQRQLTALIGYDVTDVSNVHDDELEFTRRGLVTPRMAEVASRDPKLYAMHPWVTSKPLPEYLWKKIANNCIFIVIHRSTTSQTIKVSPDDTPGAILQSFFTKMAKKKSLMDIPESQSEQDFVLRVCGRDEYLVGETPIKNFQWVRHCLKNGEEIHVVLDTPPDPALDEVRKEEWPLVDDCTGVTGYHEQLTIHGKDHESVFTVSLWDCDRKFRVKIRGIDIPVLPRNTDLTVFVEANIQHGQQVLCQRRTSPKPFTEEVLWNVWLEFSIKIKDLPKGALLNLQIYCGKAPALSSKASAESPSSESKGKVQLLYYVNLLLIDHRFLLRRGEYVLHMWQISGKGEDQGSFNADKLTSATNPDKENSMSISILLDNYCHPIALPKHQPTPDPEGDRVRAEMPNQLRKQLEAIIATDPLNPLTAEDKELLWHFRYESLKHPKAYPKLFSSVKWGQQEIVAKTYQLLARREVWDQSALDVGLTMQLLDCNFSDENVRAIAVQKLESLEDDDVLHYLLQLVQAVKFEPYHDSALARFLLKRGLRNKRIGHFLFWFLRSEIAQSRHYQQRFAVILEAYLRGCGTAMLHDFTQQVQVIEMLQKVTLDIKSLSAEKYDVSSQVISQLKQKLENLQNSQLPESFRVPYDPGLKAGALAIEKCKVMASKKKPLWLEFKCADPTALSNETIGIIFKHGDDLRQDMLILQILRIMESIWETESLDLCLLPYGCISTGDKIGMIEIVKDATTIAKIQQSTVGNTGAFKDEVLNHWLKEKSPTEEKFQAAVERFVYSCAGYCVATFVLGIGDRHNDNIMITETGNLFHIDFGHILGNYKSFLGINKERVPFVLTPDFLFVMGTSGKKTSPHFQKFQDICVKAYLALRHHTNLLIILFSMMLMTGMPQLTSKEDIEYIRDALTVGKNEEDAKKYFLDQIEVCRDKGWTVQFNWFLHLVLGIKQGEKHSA

In series [1], `O=Cc1ccc(N2CCOCC2)cc1O` registered an IC50 of 2800 nM.
On to `CN1CCOc2cc(/C=C3\SC(=O)NC3=O)ccc21`, for which the IC50 in series [2] is greater than 10000 nM.
Take `Cc1cc(Oc2ccccc2C)c2[nH]c(N3CCOCC3)cc(=O)c2c1`: the 50% inhibitory concentration (IC50) in series [1] turned out to be 130 nM.
On the same count and under the same terms, for `Cc1cc(NCc2ccccc2C)c2nc(N3CCOCC3)cc(=O)n2c1` the value was 110 nM.
In series [1], `Cc1ccc(S(=O)(=O)Nc2nc3ccccc3nc2Nc2ccc3nsnc3c2)cc1` had an IC50 of 383 nM.
Take `N=C(N)NCCCC(NC(=O)CCC(=O)OC[N+]1(c2cc(=O)c3cccc(-c4ccccc4)c3o2)CCOCC1)C(=O)NCC(=O)NC(CC(=O)O)C(=O)NC(CO)C(=O)[O-]` (stereo not drawn): the IC50 in series [1] came out at 736 nM; in series [3], 356 nM; in series [4], 1770 nM; in series [5] it was 3230 nM; in series [6], 1060 nM; in [7] it was 357 nM.
Take `COc1cc(Nc2nc3ccccc3nc2NS(=O)(=O)c2ccc(NC(=O)c3ccc(C)c(OC)c3)cc2)cc(OC)c1`: the IC50 in [7] stood at 150 nM; in [8] it was 190 nM.
`COc1ccc(-c2ccc3ncc4c(c3c2)n(-c2ccc(N3CCNCC3)c(C(F)(F)F)c2)c(=O)n4C)cn1` [BGT-226 FREE BASE] had a half-life in [9] of 6 h.
As for `COc1c(OCCCN2CCOCC2)ccc2c1N=C(NC(=O)c1cnc(N)nc1)N1CCN=C21` [COPANLISIB], the IC50 in [10] was less than 1 nM.
`CC[C@H](Nc1ncnc2[nH]cnc12)c1nc2cccc(F)c2c(=O)n1-c1ccccc1` [IDELALISIB] registered an IC50 in series [6] greater than 10000 nM.
For `Oc1ccc(/C=C/c2cc(O)cc(O)c2)cc1` [RESVERATROL], the IC50 in series [11] stood at 250 nM; in series [12], 500 nM.
